This assay addresses phosphorylated active hERK2 enzyme (Homo sapiens, UniProt P28482). The assay can be described thus: Active human ERK2 (hERK2) Activity Assay (IMAP-FP). The conditions noted are these: 10 point titration, 3 μM starting concentration, 0.5 nM hERK2, 30 μM ATP, 60 minutes reaction. The class given is biochemical.

Each structure is given as a SMILES string. pIC50: −log10 of the molar value.

Consider 30 molecules from patent US9988397B2, “ERK inhibitors” (Merck Sharp & Dohme Corp., priority 2014, dated 2018).

For orientation: pIC50 means the IC50 on a negative log10 scale, so that one unit is a factor of ten.

Sequence of phosphorylated active hERK2 enzyme (P28482 whole entry): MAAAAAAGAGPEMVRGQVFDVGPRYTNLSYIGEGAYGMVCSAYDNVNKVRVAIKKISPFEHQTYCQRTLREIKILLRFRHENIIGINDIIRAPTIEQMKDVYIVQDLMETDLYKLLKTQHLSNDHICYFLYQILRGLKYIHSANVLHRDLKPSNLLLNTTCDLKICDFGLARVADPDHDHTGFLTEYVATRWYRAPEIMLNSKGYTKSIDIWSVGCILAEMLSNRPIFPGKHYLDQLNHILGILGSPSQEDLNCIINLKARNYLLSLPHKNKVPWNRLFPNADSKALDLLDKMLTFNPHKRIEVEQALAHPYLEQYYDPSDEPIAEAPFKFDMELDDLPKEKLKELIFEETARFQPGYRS
Experimental: Activated ERK2 activity was determined in an IMAP-FP assay (Molecular Devices). Using this assay format, the potency (IC50) of each compound was determined from a 10 point (1:3 serial dilution, 3 μM starting compound concentration) titration curve using the following outlined procedure. […] Following a 15 minute compound & enzyme incubation, each reaction was initiated by the addition of 10 μL kinase buffer containing 2.45 μM ERK2 IMAP substrate peptides and 75 μM ATP. The final reaction in each well of 25 μL consists of 0.5 nM hERK2, 900 nM unlabeled peptide, 80 nM labeled-peptide, and 30 μM ATP. Phosphorylation reactions were allowed to proceed for 60 minutes and were immediately quenched by the addition of 60 μL IMAP detection beads (1:1000 dilutions) in IMAP binding buffer (Molecular Devices) with 24 mM NaCl. Plates were read on EnVision reader after 60 minutes binding equilibration using Fluorescence Polarization protocol (Perkin Elmer).

Turning to `CCn1ncc2cc3nc(c21)CC(=O)COC[C@H](c1ccccc1)NC(=O)N3` [Example 43, (9 S)-1-Ethyl-9-phenyl-1,6,9,10-tetrahydro-12H-5,15-(azeno)pyrazolo [4,3-i][1,4,6]oxadiazacyclotetradecine-7,13(8H,14H)-dione], the pIC50 was 7.95.
Consider `Cc1cc(-n2ncc3cc4nc(c32)Cn2cc(nn2)CC(c2ccccc2)NC(=O)N4)ccn1` (single isomer, unassigned) [Example 39, 1-(2-Methylpyridin-4-yl)-9-phenyl-1,6,9,10-tetrahydro-5,16-(azeno)-14,11-(metheno)pyrazolo[4,3-l][1,2,3,7,9]pentaazacyclopentadecin-7(8H,15H)-one], for which the pIC50 is 6.63.
With `Cn1ncc2cc3nc(c21)CCCCCC(c1ccccc1)NC(=O)N3` (stereo not drawn) [Example 30, 1-Methyl-9-phenyl-1,6,9,10,11,12,13,14-octahydro-5,15-(azeno)pyrazolo[4,3-f][1,3]diazacyclotetradecin-7(8H)-one], the pIC50 was 6.64.
Molecule `CCn1ncc2cc3nc(c21)CCCOC(C)(C)[C@H](c1ccccc1)NC(=O)N3` [Example 11, (9S)-1-Ethyl-10, 10-dimethyl-9-phenyl-1,6,9,10,13,14-hexahydro-12H-5,15-(azeno)pyrazolo [4,3-i][1,4,6]oxadiazacyclotetradecin-7(8H)-one] showed a pIC50 of 7.79.
In turn, `CCn1ncc2cc3nc(c21)CC(C)(O)COC[C@H](c1ccccc1)NC(=O)N3` (stereo partly drawn) [Example 5, (9S)-1-Ethyl-13-hydroxy-13-methyl-9-phenyl-1,6,9,10,13,14-hexahydro-12H-5,15-(azeno)pyrazolo[4,3-i][1,4,6]oxadiazacyclotetradecin-7(8H)-one] had a pIC50 of 6.94.
`Cn1ncc2cc3nc(c21)NCCCC[C@H](c1ccccc1)NC(=O)N3` [Example 19, (9R)-1-Methyl-9-phenyl-1,6,9,10,11,12,13,14-octahydro-5,15-(azeno)pyrazolo[4,3-f][1,3,9]triazacyclotetradecin-7(8 H)-one] had a pIC50 of 8.03.
Then `CCn1ncc2cc3nc(c21)CCCO[C@H]([C@@H](C)O)[C@H](c1ccccc1)NC(=O)N3` [Example 45, (9 S,10 S)-1-Ethyl-10-[(1R)-1-hydroxyethyl]-9-phenyl-1,6,9,10,13,14-hexahydro-12H-5,15-(azeno)pyrazolo[4,3-i][1,4,6]oxadiazacyclotetradecin-7(8H)-one], with 6.54.
Molecule `CCn1ncc2cc3nc(c21)C[C@H](O)COC[C@H](c1ccc(Cl)c(F)c1)NC(=O)N3` [Example 54, (9S,13S)-1-Ethyl-9-(4-chloro-3-fluorophenyl)-13-hydroxy-1,6,9,10,13,14-hexahydro-12H-5,15-(azeno)pyrazolo[4,3-i][1,4,6]oxadiazacyclotetradecin-7(8H)-one] gave a pIC50 of 8.29.
Then `CCn1ncc2cc3nc(c21)CC(CO)COC[C@H](c1ccccc1)NC(=O)N3` (stereo partly drawn) [Example 58, (9 S)-1-ethyl-13-(hydroxymethyl)-9-phenyl-1,6,9,10,13,14-hexahydro-12H-5,15-(azeno)pyrazolo[4,3-i][1,4,6]oxadiazacyclotetradecin-7(8H)-one], with 8.29; and `CCn1ncc2cc3nc(c21)C[C@@H](O)COC[C@H](c1cccc(F)c1)NC(=O)N3` [Example 51, (9S,13R)-1-Ethyl-9-(3-fluorophenyl)-13-hydroxy-1,6,9,10,13,14-hexahydro-12H-5,15-(azeno)pyrazolo[4,3-i][1,4,6]oxadiazacyclotetradecin-7(8H)-one], with 8.41; and `CCn1ncc2cc3nc(c21)NCCCCC(c1ccccc1)NC(=O)N3` (stereo not drawn) [Example 18, 1-Ethyl-9-phenyl-1,6,9,10,11,12,13,14-octahydro-5,15-(azeno)pyrazolo[4,3-f][1,3,9]triazacyclotetradecin-7(8H)-one], with 7.80.
In the case of `Cn1ncc2cc3nc(c21)CNCCCC(c1ccccc1)NC(=O)N3` (stereo not drawn) [Example 31, 1-Methyl-9-phenyl-1,6,9,10,11,12,13,14-octahydro-5,15-(azeno)pyrazolo[3,4-k][1,3,8]triazacyclotetradecin-7(8H)-one], the pIC50 was 6.08.
In turn, `COCCCn1ncc2cc3nc(c21)Cn1cc(nn1)CC(c1ccccc1)NC(=O)N3` (stereo not drawn) [Example 37, 1-(3-Methoxypropyl)-9-phenyl-1,6,9,10-tetrahydro-5,16-(azeno)-14,11-(metheno)pyrazolo[4,3-l][1,2,3,7,9]pentaazacyclopentadecin-7(8H,15H)-one] had a pIC50 of 6.62.
For `CCn1ncc2cc3nc(c21)[C@H]1C[C@H]1COC[C@H](c1ccccc1)NC(=O)N3` [Example 8, (9S,12aR,13aS)-1-Ethyl-9-phenyl-1,6,9,10,12,12a,13,13a-octahydro-5,14-(azeno)cyclopropa[1]pyrazolo[4,3-i][1,4,6]oxadiazacyclotetradecin-7(8H)-one], the pIC50 is 7.30.
Consider `CN1CCCC(c2ccccc2)NC(=O)Nc2cc3cnn(C)c3c(n2)C1` (stereo not drawn) [Example 33, 1,13-Dimethyl-9-phenyl-1,6,9,10,11,12,13,14-octahydro-5,15-(azeno)pyrazolo[3,4-k][1,3,8]triazacyclotetradecin-7(8H)-one], for which the pIC50 is 6.56.
Then `CCn1ncc2cc3nc(c21)OCCC[C@@](C)(O)[C@H](c1ccccc1)NC(=O)N3` [Example 28, (9S,10R)-1-Ethyl-10-hydroxy-10-methyl-9-phenyl-1,6,8,9,10,11,12,13-octahydro-7H-5,15-(azeno)pyrazolo[3,4-c][1,7,9]oxadiazacyclotetradecin-7-one], with 6.84; and `CCn1ncc2cc3nc(c21)CCCO[C@@H]([C@H](C)O)[C@@H](c1ccccc1)NC(=O)N3` [Example 48, (9R,10R)-1-Ethyl-10-[(1S)-1-hydroxyethyl]-9-phenyl-1,6,9,10,13,14-hexahydro-12H-5,15-(azeno)pyrazolo[4,3-i][1,4,6]oxadiazacyclotetradecin-7(8H)-one], with 8.39; and `CCn1ncc2cc3nc(c21)/C=C\COC(C)(C)[C@@H](c1ccccc1)NC(=O)N3` [Example 42, (9R,13Z)-1-Ethyl-10,10-dimethyl-9-phenyl-1,6,9,10-tetrahydro-12H-5,15-(azeno)pyrazolo [4,3-i][1,4,6]oxadiazacyclotetradecin-7(8H)-one], with 6.64.
In turn, `CCn1ncc2cc3nc(c21)CCCOC[C@H](c1ccccc1)NC(=O)N3` [Example 1, (9S)-1-Ethyl-9-phenyl-1,6,9,10,13,14-hexahydro-12H-5,15-(azeno)pyrazolo[4,3-i][1,4,6]oxadiazacyclotetradecin-7(8H)-one] showed a pIC50 of 8.06.
For the molecule `CCn1ncc2cc3nc(c21)CCCO[C@H]([C@H](C)O)[C@H](c1ccccc1)NC(=O)N3` [Example 46, (9 S,10 S)-1-Ethyl-10-[(1 S)-1-hydroxyethyl]-9-phenyl-1,6,9,10,13,14-hexahydro-12H-5,15-(azeno)pyrazolo[4,3-i][1,4,6]oxadiazacyclotetradecin-7(8H)-one], the negative-log IC50 (pIC50) is 7.31.
In turn, `CCn1ncc2cc3nc(c21)CCCOC(C)(C)[C@@H](c1ccccc1)NC(=O)N3` [Example 12, (9R)-1-Ethyl-10,10-dimethyl-9-phenyl-1,6,9,10,13,14-hexahydro-12H-5,15-(azeno)pyrazolo[4,3-i][1,4,6]oxadiazacyclotetradecin-7(8H)-one] gave a pIC50 of 6.13.
`CCn1ncc2cc3nc(c21)OCCCCC(c1ccccc1)NC(=O)N3` (stereo not drawn) [Example 16, 1-Ethyl-9-phenyl-1,6,8,9,10,11,12,13-octahydro-7H-5,15-(azeno)pyrazolo [3,4-c][1,7,9]oxadiazacyclotetradecin-7-one] gave a pIC50 of 7.07.
`CCn1ncc2cc3nc(c21)NCCOC[C@H](c1ccccc1)NC(=O)N3` [Example 21, (9S)-1-Ethyl-9-phenyl-1,6,9,10,13,14-hexahydro-12H-5,15-(azeno)pyrazolo[4,3-i][1,4,6,12]oxatriazacyclotetradecin-7(8H)-one] had a pIC50 of 8.30.
Consider `Cn1ncc2cc3nc(c21)COCCCC(c1ccccc1)NC(=O)N3` (stereo not drawn) [Example 32, 1-Methyl-9-phenyl-1,6,9,10,11,12-hexahydro-5,15-(azeno)pyrazolo[4,3-k][1,6,8]oxadiazacyclotetradecin-7(8H,14H)-one], for which the pIC50 is 7.29.
For the molecule `CCn1ncc2cc3nc(c21)C[C@H](O)COC[C@H](c1cccc(F)c1)NC(=O)N3` [Example 52, (9S,13S)-1-Ethyl-9-(3-fluorophenyl)-13-hydroxy-1,6,9,10,13,14-hexahydro-12H-5,15-(azeno)pyrazolo[4,3-i][1,4,6]oxadiazacyclotetradecin-7(8H)-one], the pIC50 is 7.84.
Then `O=C1Nc2cc3cnn(C(F)F)c3c(n2)/C=C\COC[C@H](c2ccccc2)N1` [Example 10, (9S,13Z)-1-(Difluoromethyl)-9-phenyl-1,6,9,10-tetrahydro-12H-5,15-(azeno)pyrazolo[4,3-i][1,4,6]oxadiazacyclotetradecin-7(8H)-one], with 8.38; and `CCn1ncc2cc3nc(c21)OCCC[C@](C)(O)[C@H](c1ccccc1)NC(=O)N3` [Example 27, (9S,10S)-1-Ethyl-10-hydroxy-10-methyl-9-phenyl-1,6,8,9,10,11,12,13-octahydro-7H-5,15-(azeno)pyrazolo[3,4-c][1,7,9]oxadiazacyclotetradecin-7-one], with 6.83.
The molecule `CCn1ncc2cc3nc(c21)[C@@H]1C[C@@H]1COC[C@H](c1ccccc1)NC(=O)N3` [Example 7, (9S,12aS,13 aR)-1-Ethyl-9-phenyl-1,6,9,10,12,12a,13,13a-octahydro-5,14-(azeno)cyclopropa[l]pyrazolo[4,3-i][1,4,6]oxadiazacyclotetradecin-7(8H)-one] gave a pIC50 of 7.94.
With `COCCn1ncc2cc3nc(c21)Cn1cc(nn1)CC(c1ccccc1)NC(=O)N3` (stereo not drawn) [Example 36, 1-(2-Methoxyethyl)-9-phenyl-1,6,9,10-tetrahydro-5,16-(azeno)-14,11-(metheno)pyrazolo[4,3-l][1,2,3,7,9]pentaazacyclopentadecin-7(8H,15H)-one] the figure was 6.38; with `CN1CCCCC(c2ccccc2)NC(=O)Nc2cc3cnn(C)c3c1n2` (stereo not drawn) [Example 20, 1,14-Dimethyl-9-phenyl-1,6,9,10,11,12,13,14-octahydro-5,15-(azeno)pyrazolo[4,3-f][1,3,9]triazacyclotetradecin-7(8H)-one], 7.07.
